According to article PMC5071874, “Universal stress protein Rv2624c alters abundance of arginine and enhances intracellular survival by ATP binding in mycobacteria” (Scientific Reports, 2016):

Target: Rv2624c (Mycobacterium tuberculosis, UniProt P9WFD5)
Sequence (P9WFD5 whole entry): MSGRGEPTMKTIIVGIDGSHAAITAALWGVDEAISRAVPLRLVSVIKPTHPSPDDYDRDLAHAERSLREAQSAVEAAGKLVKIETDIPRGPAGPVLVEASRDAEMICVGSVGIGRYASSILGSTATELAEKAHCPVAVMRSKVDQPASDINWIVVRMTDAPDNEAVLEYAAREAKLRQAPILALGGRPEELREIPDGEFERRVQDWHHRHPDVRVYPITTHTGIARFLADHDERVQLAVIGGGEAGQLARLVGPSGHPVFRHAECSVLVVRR

SMILES: Nc1ncnc2c1ncn2[C@@H]1O[C@H](COP(=O)(O)OP(=O)(O)OP(=O)(O)O)[C@@H](O)[C@H]1O [ATP]
- HPLC of nucleotides extracted by boiling purified protein: purified Rv2624c proteins from E. coli bound tightly to ATP and ADP after extensive purification steps

SMILES: Nc1ncnc2c1ncn2[C@@H]1O[C@H](COP(=O)(O)OP(=O)(O)O)[C@@H](O)[C@H]1O [ADP]
- HPLC of nucleotides extracted by boiling purified protein: purified Rv2624c proteins from E. coli bound tightly to ATP and ADP after extensive purification steps
